Source: US20220024921A1, “1,3,4-OXADIAZOLONE COMPOUND AND PHARMACEUTICAL” (NIPPON SHINYAKU CO., LTD., priority 2018, published 2022)
Where a name gives a salt, the structure may show the parent alone.

These compounds were tested against T1, PIM1 serine/threonine kinase (Homo sapiens, UniProt P11309) (assay: PIM1 serine/threonine kinase inhibitory effect). Conditions: PIM1 serine/threonine kinase activity; ATP 40 μM; 30° C., 30 minutes.
T1 construct: purchased Carna Bioscience, Inc
Type: biochemical
Method: Each test substance was prepared to 10 mM with dimethylsulfoxide (DMSO), and further diluted with DMSO so as to have concentrations of 1000, 300, 100, 30, 10, 3, 1, 0.3, 0.1, 0.03, 0.01, and 0.001 μM. Moreover, each dilution was further diluted 33.3-fold with an assay buffer to prepare a test substance solution. The composition of the assay buffer was 50 mM HEPES (pH 7.0), 0.02% NaN3, 0.01% Bovine Serum Albumin, 0.1 mM Orthovanadate, 1 mM Dithiothreitol, and 5 mM MgCl2.
5 μL of each test substance solution was added to 384-well plates (n=2), and then 2.5 μL of a substrate solution (substrate 3-biotin (Cisbio Bioassays SAS), final concentration in the reaction solution: 0.5 μM) and 2.5 μL of an ATP solution (in the cases of PIM1, 2, 3, the final concentrations in the reaction solutions were 40, 2, and 10 μM, respectively) were added, 5 μL of each of PIM1, 2, 3 serine/threonine kinase solutions (Carna Bioscience, Inc., the final concentrations in the reaction solutions were 0.15, 1.6, and 0.25 μg/ml, respectively) was finally added, and the mixture was reacted at 30° C. for 30 minutes. The test substance concentrations in the reaction solutions are 10000, 3000, 1000, 300, 100, 30, 10, 3, 1, 0.3, 0.1, and 0.01 nM.
Thereafter, 15 μL of each detection solution (62.5 nM Streptavidin-XL665 (Cisbio Bioassays SAS), […] STK antibody-Cryptate (Cisbio Bioassays SAS), 50 mM HEPES (pH 7.0), 0.8 M KF, 0.1% Bovine Serum Albumin, 20 mM ethylenediaminetetraacetic acid) was added to each well. After stirring, the mixture was reacted at 30° C. for 1 hour. Absorbance (OD620, OD665) at 620 and 665 nm was measured with a microplate reader (SpectraMax M5e, Molecular Devices, LLC).
Non-linear regression analysis was performed by an SAS system (SAS Institute Inc.) using the ratio (OD665/OD620) of the measured absorbance to calculate a test substance concentration (IC50) that inhibits PIM1 serine/threonine kinase activity by 50%.

T1 sequence (P11309 whole entry): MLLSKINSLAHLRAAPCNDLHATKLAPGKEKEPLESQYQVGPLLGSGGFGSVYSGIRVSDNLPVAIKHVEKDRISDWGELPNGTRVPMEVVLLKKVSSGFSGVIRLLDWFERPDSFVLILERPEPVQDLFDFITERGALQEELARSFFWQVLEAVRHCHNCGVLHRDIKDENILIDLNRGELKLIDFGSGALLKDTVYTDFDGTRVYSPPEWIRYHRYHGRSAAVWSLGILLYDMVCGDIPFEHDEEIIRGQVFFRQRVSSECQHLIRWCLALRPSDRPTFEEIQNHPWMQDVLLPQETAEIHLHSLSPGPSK

| Compound | IC50 |
| --- | --- |
| CC(=O)N1CCC(N(C)Cc2cc(-c3n[nH]c(=O)o3)ccc2Cl)CC1 [Example 215, 5-(3-{[(1-acetylpiperidin-4-yl)(methyl)amino]methyl}-4-chlorophenyl)-1,3,4-oxadiazol-2(3H)-one hydrochloride] | 8800 nM |
| CC(C[C@@H]1CCNC1)Nc1cc(-c2n[nH]c(=O)o2)ccc1C(F)(F)F (stereo partly drawn) [Example 134, 5-[3-({1-[(3S)-pyrrolidin-3-yl]propan-2-yl}amino)-4-(trifluoromethyl)phenyl]-1,3,4-oxadiazol-2(3H)-one hydrochloride] | 14 nM |
| CC(C)(C)OC(=O)N1CCN(c2cc(-c3n[nH]c(=O)o3)ccc2Cl)CC1 [Example 7, tert-butyl 4-[2-chloro-5-(5-oxo-4,5-dihydro-1,3,4-oxadiazol-2-yl)phenyl]piperazine-1-carboxylate] | 4100 nM |
| O=c1[nH]nc(-c2ccc(C(F)(F)F)c(NC[C@H]3CC[C@H](CO)CC3)c2)o1 [Example 120, 5-[3-({[(1r,4r)-4-(hydroxymethyl)cyclohexyl]methyl}amino)-4-(trifluoromethyl)phenyl]-1,3,4-oxadiazol-2(3H)-one] | 590 nM |
| NC(=O)[C@H]1CC[C@H](CNc2cc(-c3n[nH]c(=O)o3)ccc2C(F)(F)F)CC1 [Example 121, (1r,4r)-4-{[5-(5-oxo-4,5-dihydro-1,3,4-oxadiazol-2-yl)-2-(trifluoromethyl)anilino]methyl}cyclohexane-1-carboxamide] | 120 nM |
| C[C@H](Nc1cc(-c2n[nH]c(=O)o2)ccc1F)C1CCNCC1 [Example 80, 5-(4-fluoro-3-{[(1S)-1-(piperidin-4-yl)ethyl]amino}phenyl)-1,3,4-oxadiazol-2(3H)-one hydrochloride] | 56 nM |
| COc1ccc(-c2n[nH]c(=O)o2)cc1N[C@@H](C)C1CCNCC1 [Example 82, 5-(4-methoxy-3-{[(1S)-1-(piperidin-4-yl)ethyl]amino}phenyl)-1,3,4-oxadiazol-2(3H)-one dihydrochloride] | 71 nM |
| Cc1c(-c2n[nH]c(=O)o2)cc(Cl)c(Cl)c1N[C@@H](C)C1CCNCC1 [Example 93, 5-(4,5-dichloro-2-methyl-3-{[(1S)-1-(piperidin-4-yl)ethyl]amino}phenyl)-1,3,4-oxadiazol-2(3H)-one hydrochloride] | 36 nM |
| C[C@H](Nc1cc(-c2n[nH]c(=O)o2)ccc1S(C)(=O)=O)C1CCNCC1 [Example 128, 5-[4-(methanesulfonyl)-3-{[(1S)-1-(piperidin-4-yl)ethyl]amino}phenyl]-1,3,4-oxadiazol-2(3H)-one hydrochloride] | 82 nM |
| CC(C)(C)OC(=O)NCc1ccc(-c2cc(-c3n[nH]c(=O)o3)ccc2C(F)(F)F)cc1 [Example 19, tert-butyl {[5′-(5-oxo-4,5-dihydro-1,3,4-oxadiazol-2-yl)-2′-(trifluoromethyl)[1,1′-biphenyl]-4-yl]methyl}carbamate] | 1500 nM |
| NC1CCN(c2cc(-c3n[nH]c(=O)o3)ccc2C(F)(F)F)CC1 [Example 9, 5-[3-(4-aminopiperidin-1-yl)-4-(trifluoromethyl)phenyl]-1,3,4-oxadiazol-2(3H)-one hydrochloride] | 45 nM |
| CN(Cc1cc(-c2n[nH]c(=O)o2)ccc1Cl)C1CCNCC1 [Example 205, 5-(4-chloro-3-{[methyl(piperidin-4-yl)amino]methyl}phenyl)-1,3,4-oxadiazol-2(3H)-one dihydrochloride] | 290 nM |
| CC(C)(C)OC(=O)NCc1cccc(-c2cc(-c3n[nH]c(=O)o3)ccc2Cl)c1 [Example 17, tert-butyl {[2′-chloro-5′-(5-oxo-4,5-dihydro-1,3,4-oxadiazol-2-yl)[1,1′-biphenyl]-3-yl]methyl}carbamate] | 1300 nM |
| C[C@H](Nc1cc(-c2n[nH]c(=O)o2)ccn1)C1CCNCC1 [Example 112, 5-(2-{[(1S)-1-(piperidin-4-yl)ethyl]amino}pyridin-4-yl)-1,3,4-oxadiazol-2(3H)-one dihydrochloride] | 600 nM |
| NCc1cccc(-c2cc(-c3n[nH]c(=O)o3)ccc2C(F)(F)F)c1 [Example 21, 5-[3′-(aminomethyl)-6-(trifluoromethyl)[1,1′-biphenyl]-3-yl]-1,3,4-oxadiazol-2(3H)-one hydrochloride] | 160 nM |
| CC(C)(C)OC(=O)[C@H]1CC[C@H](CNc2cc(-c3n[nH]c(=O)o3)ccc2C(F)(F)F)CC1 [Example 118, tert-butyl (1r,4r)-4-{[5-(5-oxo-4,5-dihydro-1,3,4-oxadiazol-2-yl)-2-(trifluoromethyl)anilino]methyl}cyclohexane-1-carboxylate] | 7300 nM |

More lines, now with the values ahead:

| IC50 | Compound |
| --- | --- |
| 16 nM | CC(C[C@H]1CCNC1)Nc1cc(-c2n[nH]c(=O)o2)ccc1C(F)(F)F (stereo partly drawn) [Example 136, 5-[3-({1-[(3R)-pyrrolidin-3-yl]propan-2-yl}amino)-4-(trifluoromethyl)phenyl]-1,3,4-oxadiazol-2(3H)-one hydrochloride] |
| 40 nM | NCc1ccc(Nc2cc(-c3n[nH]c(=O)o3)ccc2C(F)(F)F)cc1 [Example 41, 5-{3-[4-(aminomethyl)anilino]-4-(trifluoromethyl)phenyl}-1,3,4-oxadiazol-2(3H)-one hydrochloride] |
| 140 nM | N[C@H]1CC[C@H](CNc2cccc(-c3n[nH]c(=O)o3)c2)CC1 [Example 62, 5-[3-({[(1r,4r)-4-aminocyclohexyl]methyl}amino)phenyl]-1,3,4-oxadiazol-2(3H)-one hydrochloride] |
| 27 nM | NCCCNc1cc(-c2n[nH]c(=O)o2)ccc1C(F)(F)F [Example 2, 5-{3-[(3-aminopropyl)amino]-4-(trifluoromethyl)phenyl}-1,3,4-oxadiazol-2(3H)-one] |
| 23 nM | O=c1[nH]nc(-c2ccc(C(F)(F)F)c(N[C@@H](C3CCNCC3)C(F)(F)F)c2)o1 [Example 147, 5-[4-(trifluoromethyl)-3-{[(1S)-2,2,2-trifluoro-1-(piperidin-4-yl)ethyl]amino}phenyl]-1,3,4-oxadiazol-2(3H)-one hydrochloride] |
| 1800 nM | O=c1[nH]nc(-c2ccc(C(F)(F)F)c(NC[C@H]3CC[C@H](C(=O)O)CC3)c2)o1 [Example 119, (1r,4r)-4-{[5-(5-oxo-4,5-dihydro-1,3,4-oxadiazol-2-yl)-2-(trifluoromethyl)anilino]methyl}cyclohexane-1-carboxylic acid] |
| 810 nM | O=c1[nH]nc(-c2ccc(Cl)c(N3CCNCC3)c2)o1 [Example 8, 5-[4-chloro-3-(piperazin-1-yl)phenyl]-1,3,4-oxadiazol-2(3H)-one hydrochloride] |
| 110 nM | O=c1[nH]nc(-c2ccc(C(F)(F)F)c(-c3ccc(OCC4CCNCC4)cc3)c2)o1 [Example 23, 5-{4′-[(piperidin-4-yl)methoxy]-6-(trifluoromethyl)[1,1′-biphenyl]-3-yl}-1,3,4-oxadiazol-2(3H)-one hydrochloride] |
| 36 nM | C[C@H](Nc1cc(-c2n[nH]c(=O)o2)cc(C2CC2)c1Cl)C1CCNCC1 [Example 102, 5-(4-chloro-3-cyclopropyl-5-{[(1S)-1-(piperidin-4-yl)ethyl]amino}phenyl)-1,3,4-oxadiazol-2(3H)-one] |
